Biological target: Bcl-2 protein (Homo sapiens (Human), UniProt P10415)
Experiment: Bcl-2 binding TR-FRET (Time-Resolved Fluorescence-Resonance-Energy-Transfer) assay
Settings: inhibition constant for binding to Bcl-2 protein
Description: The smaller the Ki value, the greater is the binding affinity.

Chain of Bcl-2 protein (P10415 whole entry): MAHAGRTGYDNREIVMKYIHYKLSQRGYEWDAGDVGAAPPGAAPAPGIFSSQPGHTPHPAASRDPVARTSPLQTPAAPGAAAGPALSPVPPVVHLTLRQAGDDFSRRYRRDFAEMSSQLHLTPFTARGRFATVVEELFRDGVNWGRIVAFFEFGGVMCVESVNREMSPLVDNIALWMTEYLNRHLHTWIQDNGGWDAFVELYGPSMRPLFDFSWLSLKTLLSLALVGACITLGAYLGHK

| Structure (SMILES) | Ki |
| --- | --- |
| CC1(C)CCC(CN2CCN(c3ccc(C(=O)NS(=O)(=O)c4ccc(OCC5CCCC(=O)C5)c([N+](=O)[O-])c4)c(Oc4cnc5[nH]ccc5c4)c3)CC2)=C(c2ccc(Cl)cc2)C1 (stereo not drawn) [Compound 205, 4-(4-{[2-(4-chlorophenyl)-4,4-dimethylcyclohex-1-en-1-yl]methyl}piperazin-1-yl)-N-({3-nitro-4-[(3-oxocyclohexyl)methoxy]phenyl}sulfonyl)-2-(1H-pyrrolo[2,3-b]pyridin-5-yloxy)benzamide] | < 0.01 nM |
| CC1(C)CCC(CN2CCN(c3ccc(C(=O)NS(=O)(=O)c4ccc(NC[C@@H]5CCN(C6COC6)C5)c([N+](=O)[O-])c4)c(Oc4cnc5[nH]ccc5c4)c3)CC2)=C(c2ccc(Cl)cc2)C1 [Compound 209, 4-(4-{[2-(4-chlorophenyl)-4,4-dimethylcyclohex-1-en-1-yl]methyl}piperazin-1-yl)-N-{[3-nitro-4-({[(3S)-1-oxetan-3-ylpyrrolidin-3-yl]methyl}amino)phenyl]sulfonyl}-2-(1H-pyrrolo[2,3-b]pyridin-5-yloxy)benzamide] | < 0.01 nM |
| COCCOCCN1CCOC(CNc2ccc(S(=O)(=O)NC(=O)c3ccc(N4CCN(CC5=C(c6ccc(Cl)cc6)CC(C)(C)CC5)CC4)cc3Oc3cnc4[nH]ccc4c3)cc2[N+](=O)[O-])C1 (stereo not drawn) [Compound 213, 4-(4-{[2-(4-chlorophenyl)-4,4-dimethylcyclohex-1-en-1-yl]methyl}piperazin-1-yl)-N-({4-[({4-[2-(2-methoxyethoxyl)ethyl]morpholin-2-yl}methyl)amino]-3-nitrophenyl}sulfonyl)-2-(1H-pyrrolo[2,3-b]pyridin-5-yloxy)benzamide] | < 0.01 nM |
| CC1(C)CCC(CN2CCN(c3ccc(C(=O)NS(=O)(=O)c4ccc(NCC5CN(CC#N)CCO5)c([N+](=O)[O-])c4)c(Oc4cnc5[nH]ccc5c4)c3)CC2)=C(c2ccc(Cl)cc2)C1 (stereo not drawn) [Compound 214, 4-(4-{[2-(4-chlorophenyl)-4,4-dimethylcyclohex-1-en-1-yl]methyl}piperazin-1-yl)-N-{[4-({[4-(cyanomethyl)morpholin-2-yl]methyl}amino)-3-nitrophenyl]sulfonyl}-2-(1H-pyrrolo[2,3-b]pyridin-5-yloxy)benzamide] | < 0.01 nM |
| CN(C)CC(=O)N1CCOC(CNc2ccc(S(=O)(=O)NC(=O)c3ccc(N4CCN(CC5=C(c6ccc(Cl)cc6)CC(C)(C)CC5)CC4)cc3Oc3cnc4[nH]ccc4c3)cc2[N+](=O)[O-])C1 (stereo not drawn) [Compound 215, 4-(4-{[2-(4-chlorophenyl)-4,4-dimethylcyclohex-1-en-1-yl]methyl}piperazin-1-yl)-N-{[4-({[4-(N,N-dimethylglycyl)morpholin-2-yl]methyl}amino)-3-nitrophenyl]sulfonyl}-2-(1H-pyrrolo[2,3-b]pyridin-5-yloxy)benzamide] | < 0.01 nM |
| CC1(C)CCC(CN2CCN(c3ccc(C(=O)NS(=O)(=O)c4ccc(NCC5CN(CC(=O)O)CCO5)c([N+](=O)[O-])c4)c(Oc4cnc5[nH]ccc5c4)c3)CC2)=C(c2ccc(Cl)cc2)C1 (stereo not drawn) [Compound 216, (2-{[(4-{[4-(4-{[2-(4-chlorophenyl)-4,4-dimethylcyclohex-1-en-1-yl]methyl}piperazin-1-yl)-2-(1H-pyrrolo[2,3-b]pyridin-5-yloxy)benzoyl]sulfamoyl}-2-nitrophenyl)amino]methyl}morpholin-4-yl)acetic acid] | < 0.01 nM |
| CC1(C)CCC(CN2CCN(c3ccc(C(=O)NS(=O)(=O)c4ccc(NCC5CN(C6COC6)CCO5)c([N+](=O)[O-])c4)c(Oc4cnc5[nH]ccc5c4)c3)CC2)=C(c2ccc(Cl)cc2)C1 (stereo not drawn) [Compound 217, 4-(4-{[2-(4-chlorophenyl)-4,4-dimethylcyclohex-1-en-1-yl]methyl}piperazin-1-yl)-N-{[3-nitro-4-({[4-(oxetan-3-yl)morpholin-2-yl]methyl}amino)phenyl]sulfonyl}-2-(1H-pyrrolo[2,3-b]pyridin-5-yloxy)benzamide] | < 0.01 nM |
| CC1(C)CCC(CN2CCN(c3ccc(C(=O)NS(=O)(=O)c4ccc(NC5CCN(C(C)(C)C)CC5)c([N+](=O)[O-])c4)c(Oc4cnc5[nH]ccc5c4)c3)CC2)=C(c2ccc(Cl)cc2)C1 [Compound 227, N-({4-[(1-tert-butylpiperidin-4-yl)amino]-3-nitrophenyl}sulfonyl)-4-(4-{[2-(4-chlorophenyl)-4,4-dimethylcyclohex-1-en-1-yl]methyl}piperazin-1-yl)-2-(1H-pyrrolo[2,3-b]pyridin-5-yloxy)benzamide] | < 0.01 nM |
| CC1(C)CCC(CN2CCN(c3ccc(C(=O)NS(=O)(=O)c4ccc(N[C@@H]5CCOC5)c([N+](=O)[O-])c4)c(Oc4cnc5[nH]ccc5c4)c3)CC2)=C(c2ccc(Cl)cc2)C1 [Compound 238, 4-(4-{[2-(4-chlorophenyl)-4,4-dimethylcyclohex-1-en-1-yl]methyl}piperazin-1-yl)-N-({3-nitro-4-[(3R)-tetrahydrofuran-3-ylamino]phenyl}sulfonyl)-2-(1H-pyrrolo[2,3-b]pyridin-5-yloxy)benzamide] | < 0.01 nM |
| CC1(C)CCC(CN2CCN(c3ccc(C(=O)NS(=O)(=O)c4ccc(NC5CCN(C(C)(C)C)CC5)c(S(=O)(=O)C(F)(F)F)c4)c(Oc4cnc5[nH]ccc5c4)c3)CC2)=C(c2ccc(Cl)cc2)C1 [Compound 240, N-({4-[(1-tert-butylpiperidin-4-yl)amino]-3-[(trifluoromethyl)sulfonyl]phenyl}sulfonyl)-4-(4-{[2-(4-chlorophenyl)-4,4-dimethylcyclohex-1-en-1-yl]methyl}piperazin-1-yl)-2-(1H-pyrrolo[2,3-b]pyridin-5-yloxy)benzamide] | < 0.01 nM |
| CC1(C)CCC(CN2CCN(c3ccc(C(=O)NS(=O)(=O)c4ccc(NCC5CN(C6COC6)CCO5)c(S(=O)(=O)C(F)(F)F)c4)c(Oc4cnc5[nH]ccc5c4)c3)CC2)=C(c2ccc(Cl)cc2)C1 (stereo not drawn) [Compound 241, 4-(4-{[2-(4-chlorophenyl)-4,4-dimethylcyclohex-1-en-1-yl]methyl}piperazin-1-yl)-N-({4-({[4-(oxetan-3-yl)morpholin-2-yl]methyl}amino)-3-[(trifluoromethyl)sulfonyl]phenyl}sulfonyl)-2-(1H-pyrrolo[2,3-b]pyridin-5-yloxy)benzamide] | < 0.01 nM |
| CC1(C)CCC(CN2CCN(c3ccc(C(=O)NS(=O)(=O)c4ccc(NCC5CN(C(CF)CF)CCO5)c([N+](=O)[O-])c4)c(Oc4cnc5[nH]ccc5c4)c3)CC2)=C(c2ccc(Cl)cc2)C1 (stereo not drawn) [Compound 252, 4-(4-{[2-(4-chlorophenyl)-4,4-dimethylcyclohex-1-en-1-yl]methyl}piperazin-1-yl)-N-{[4-({[4-(1,3-difluoropropan-2-yl)morpholin-2-yl]methyl}amino)-3-nitrophenyl]sulfonyl}-2-(1H-pyrrolo[2,3-b]pyridin-5-yloxy)benzamide] | < 0.01 nM |
| COCCOCCN1CC[C@@H](Nc2ccc(S(=O)(=O)NC(=O)c3ccc(N4CCN(CC5=C(c6ccc(Cl)cc6)CC(C)(C)CC5)CC4)cc3Oc3cnc4[nH]ccc4c3)cc2[N+](=O)[O-])C1 [Compound 254, 4-(4-{[2-(4-chlorophenyl)-4,4-dimethylcyclohex-1-en-1-yl]methyl}piperazin-1-yl)-N-{[4-({(3R)-1-[2-(2-methoxyethoxyl)ethyl]pyrrolidin-3-yl}amino)-3-nitrophenyl]sulfonyl}-2-(1H-pyrrolo[2,3-b]pyridin-5-yloxy)benzamide] | < 0.01 nM |
| CN(C)CC(=O)N1CC[C@@H](Nc2ccc(S(=O)(=O)NC(=O)c3ccc(N4CCN(CC5=C(c6ccc(Cl)cc6)CC(C)(C)CC5)CC4)cc3Oc3cnc4[nH]ccc4c3)cc2[N+](=O)[O-])C1 [Compound 255, 4-(4-{[2-(4-chlorophenyl)-4,4-dimethylcyclohex-1-en-1-yl]methyl}piperazin-1-yl)-N-[(4-{[(3R)-1-(N,N-dimethylglycyl)pyrrolidin-3-yl]amino}-3-nitrophenyl)sulfonyl]-2-(1H-pyrrolo[2,3-b]pyridin-5-yloxy)benzamide] | < 0.01 nM |
| CC1(C)CCC(CN2CCN(c3ccc(C(=O)NS(=O)(=O)c4ccc(NC5CN(C6COC6)C5)c([N+](=O)[O-])c4)c(Oc4cnc5[nH]ccc5c4)c3)CC2)=C(c2ccc(Cl)cc2)C1 [Compound 256, 4-(4-{[2-(4-chlorophenyl)-4,4-dimethylcyclohex-1-en-1-yl]methyl}piperazin-1-yl)-N-[(3-nitro-4-{[1-(oxetan-3-yl)azetidin-3-yl]amino}phenyl)sulfonyl]-2-(1H-pyrrolo[2,3-b]pyridin-5-yloxy)benzamide] | < 0.01 nM |
| CN(C)CC(=O)N1CCO[C@H](CNc2ccc(S(=O)(=O)NC(=O)c3ccc(N4CCN(CC5=C(c6ccc(Cl)cc6)CC(C)(C)CC5)CC4)cc3Oc3cnc4[nH]ccc4c3)cc2[N+](=O)[O-])C1 [Compound 258, 4-(4-{[2-(4-chlorophenyl)-4,4-dimethylcyclohex-1-en-1-yl]methyl}piperazin-1-yl)-N-{[4-({[(2R)-4-(N,N-dimethylglycyl)morpholin-2-yl]methyl}amino)-3-nitrophenyl]sulfonyl}-2-(1H-pyrrolo[2,3-b]pyridin-5-yloxy)benzamide] | < 0.01 nM |
| CN(C)CC(=O)N1CCO[C@@H](CNc2ccc(S(=O)(=O)NC(=O)c3ccc(N4CCN(CC5=C(c6ccc(Cl)cc6)CC(C)(C)CC5)CC4)cc3Oc3cnc4[nH]ccc4c3)cc2[N+](=O)[O-])C1 [Compound 259, 4-(4-{[2-(4-chlorophenyl)-4,4-dimethylcyclohex-1-en-1-yl]methyl}piperazin-1-yl)-N-{[4-({[(2S)-4-(N,N-dimethylglycyl)morpholin-2-yl]methyl}amino)-3-nitrophenyl]sulfonyl}-2-(1H-pyrrolo[2,3-b]pyridin-5-yloxy)benzamide] | < 0.01 nM |
| CC1(C)CCC(CN2CCN(c3ccc(C(=O)NS(=O)(=O)c4ccc(N[C@@H]5CCN(CC#N)C5)c([N+](=O)[O-])c4)c(Oc4cnc5[nH]ccc5c4)c3)CC2)=C(c2ccc(Cl)cc2)C1 [Compound 262, 4-(4-{[2-(4-chlorophenyl)-4,4-dimethylcyclohex-1-en-1-yl]methyl}piperazin-1-yl)-N-[(4-{[(3R)-1-(cyanomethyl)pyrrolidin-3-yl]amino}-3-nitrophenyl)sulfonyl]-2-(1H-pyrrolo[2,3-b]pyridin-5-yloxy)benzamide] | < 0.01 nM |

— patent US10213433B2 (AbbVie Inc., priority 2010, dated 2019)
